The values below come from paper PMC11551917 (RSC Advances, 2024).

The assay has as its target Jack-bean urease (Canavalia ensiformis, UniProt P07374). Nature of the assay: indophenol ammonia assay, […] nm. Format: biochemical.

A word on the IC50: it is the midpoint of a concentration-inhibition curve.

Jack-bean urease, sequence (P07374 whole entry, looked up): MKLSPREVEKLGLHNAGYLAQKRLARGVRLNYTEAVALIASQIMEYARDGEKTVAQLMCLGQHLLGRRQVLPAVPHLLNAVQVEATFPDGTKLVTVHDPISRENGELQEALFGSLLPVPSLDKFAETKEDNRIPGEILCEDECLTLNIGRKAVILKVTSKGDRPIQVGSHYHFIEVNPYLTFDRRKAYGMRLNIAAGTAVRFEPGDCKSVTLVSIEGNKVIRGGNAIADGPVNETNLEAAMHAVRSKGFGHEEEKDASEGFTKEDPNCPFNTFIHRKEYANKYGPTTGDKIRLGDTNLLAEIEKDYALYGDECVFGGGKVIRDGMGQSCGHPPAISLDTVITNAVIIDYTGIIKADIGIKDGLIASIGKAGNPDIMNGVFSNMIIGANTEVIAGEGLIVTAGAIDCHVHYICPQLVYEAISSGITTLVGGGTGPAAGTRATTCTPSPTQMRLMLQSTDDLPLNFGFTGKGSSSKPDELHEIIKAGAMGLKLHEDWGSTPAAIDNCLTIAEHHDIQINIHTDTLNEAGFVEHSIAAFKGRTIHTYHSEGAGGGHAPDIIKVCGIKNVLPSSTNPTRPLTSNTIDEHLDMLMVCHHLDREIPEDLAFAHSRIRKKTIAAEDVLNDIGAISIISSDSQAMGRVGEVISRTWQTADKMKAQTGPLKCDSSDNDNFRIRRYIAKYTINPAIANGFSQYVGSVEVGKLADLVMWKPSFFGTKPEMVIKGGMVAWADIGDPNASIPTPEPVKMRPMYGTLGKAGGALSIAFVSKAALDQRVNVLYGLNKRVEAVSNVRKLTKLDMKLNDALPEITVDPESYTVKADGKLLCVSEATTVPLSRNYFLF

In the case of `Nc1cccc(C(=O)O)c1` [3-ABA], it took 31.4 ± 0.48 µM to reach half-maximal inhibition (IC50).

As to `NC(N)=S` [Thiourea], the IC50 came to 24.5 ± 0.47 µM.
